Experimental findings from patent publication US10941157B2, “Pesticidal compositions and uses thereof” (Gilead Apollo, LLC, priority 2015, dated 2021) are described below.

What all share (assay type): cell-based
Test [1] deals with Fusarium moniliforme (Fm). Nature of the test: In vitro pathogen growth inhibition assay, Fm. To be noted: Fusarium verticillioides. The essentials: (§1)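 Value reported is the compound concentration reaching ≥90% growth inhibition, from OD readings at 24 and 48 h after blank subtraction, confirmed visually. Inoculum was spores diluted in 17% V8 medium, except Rs, using 1.5 mm mycelial plugs in ¼ PDB; actual compound concentration corrected via OD600.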

Test [2] has as its system Collectotrichum graminicola (Cg). Nature of the test: In vitro pathogen growth inhibition assay, Cg. The settings on record: 48 h. The essentials:
as §1

Another test relates to Botrtyis cinerea (Bc). Nature of the test: In vitro pathogen growth inhibition assay, Bc. To be noted: 48 h. A digest of the protocol:
as §1

The test system of a further test is Diplodia maydis (Dm). Briefly: In vitro pathogen growth inhibition assay, Dm. The settings on record: Stenocarpella maydis, 48 h. A digest of the protocol: (§2)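 Spores of Dm, Fv and Pc were diluted in 17% V8 liquid medium; Rs used 1.5 mm mycelial plugs in ¼ PDB. Compounds from 2.5 mg/ml DMSO stocks were combined with inoculum, growth was read by OD600 at 24 and 48 h with blank subtraction, and the reported value is the concentration giving ≥90% inhibition.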

Test [3] deals with Phytophthora capsici (Pc). Briefly: In vitro pathogen growth inhibition assay, Pc. To be noted: 48 h. A digest of the protocol:
as §2

Test [4] concerns Fusarium virguliforme (Fv). Nature of the test: In vitro pathogen growth inhibition assay, Fv. The essentials: as §2
The next test deals with Septoria tritici (St). Briefly: In vitro pathogen growth inhibition assay, St. To be noted: Zymoseptoria tritici, 48 h. A digest of the protocol: as §1
The subject of the next test is Rhizoctonia solani (Rs). Nature of the test: In vitro pathogen growth inhibition assay, Rs (mycelial plugs). The settings on record: Rhizoctonia solani, 48 h. The essentials:
as §2

[5] abbreviates: ≥90% growth inhibition, 48 hours, vs 2% DMSO control, read-out: Compound Concentration (ppm) sufficient for ≥90% inhibition of Fm.
The mark [6] stands for this setting: ≥90% growth inhibition, 48 hours, vs 2% DMSO control, read-out: Compound Concentration (ppm) sufficient for ≥90% inhibition of Cg.
Setting [7] is: ≥90% growth inhibition, 48 hours, vs 2% DMSO control, read-out: Compound Concentration (ppm) sufficient for ≥90% inhibition of Bc.
Where [8] appears, read: ≥90% growth inhibition, 48 hours, vs 2% DMSO control, read-out: Compound Concentration (ppm) sufficient for ≥90% inhibition of Dm.
Where [9] appears, read: ≥90% growth inhibition, 48 hours, vs 2% DMSO control, read-out: Compound Concentration (ppm) sufficient for ≥90% inhibition of Pc.
Where [10] appears, read: ≥90% growth inhibition, 48 hours, vs 2% DMSO control, read-out: Compound Concentration (ppm) sufficient for ≥90% inhibition of Fv.
The mark [11] stands for this setting: ≥90% growth inhibition, 48 hours, vs 2% DMSO control, read-out: Compound Concentration (ppm) sufficient for ≥90% inhibition of St.
The mark [12] stands for this setting: ≥90% growth inhibition, mycelial plugs, 48 hours, vs 2% DMSO control, read-out: Compound Concentration (ppm) sufficient for ≥90% inhibition of Rs.
Setting [13] is: concentration sufficient to ≥90% inhibition of growth, 48 hours vs 2% DMSO control, read-out: Compound Concentration (ppm) for ≥90% inhibition, Fm.
[14] abbreviates: concentration sufficient to ≥90% inhibition of growth, 48 hours vs 2% DMSO control, read-out: Compound Concentration (ppm) for ≥90% inhibition, Cg.
Setting [15] is: concentration sufficient to ≥90% inhibition of growth, 48 hours vs 2% DMSO control, read-out: Compound Concentration (ppm) for ≥90% inhibition, Bc.
Where [16] appears, read: concentration sufficient to ≥90% inhibition of growth, 48 hours vs 2% DMSO control, read-out: Compound Concentration (ppm) for ≥90% inhibition, Dm.
[17] abbreviates: concentration sufficient to ≥90% inhibition of growth, 48 hours vs 2% DMSO control, read-out: Compound Concentration (ppm) for ≥90% inhibition, Pc.
The mark [18] stands for this setting: concentration sufficient to ≥90% inhibition of growth, 48 hours vs 2% DMSO control, read-out: Compound Concentration (ppm) for ≥90% inhibition, Fv.
The mark [19] stands for this setting: concentration sufficient to ≥90% inhibition of growth, 48 hours vs 2% DMSO control, read-out: Compound Concentration (ppm) for ≥90% inhibition, St.
Setting [20] is: concentration sufficient to ≥90% inhibition of growth, 48 hours vs 2% DMSO control, read-out: Compound Concentration (ppm) for ≥90% inhibition, Rs.

In brackets after ≈: the same amount, converted by molar mass. Where two headings read alike, the source gives them in different places.

`CNC(=O)C(C)(C)n1c(=O)c2c(C)c(-n3nccn3)sc2n(C[C@H](OCCC#N)c2ccccc2OC)c1=O` [Compound I-209]: the IC90 in test [1] (setting [5]) is 0.08 µg/mL (≈ 0.145 µM); in test [2] (setting [6]), 50 µg/mL (≈ 90.6 µM); in the test with Botrtyis cinerea (Bc) (setting [7]), 2 µg/mL (≈ 3.63 µM); in the test with Diplodia maydis (Dm) (setting [8]), not below 10 µg/mL; in test [3] (setting [9]) it was more than 50 µg/mL; in test [4] (setting [10]), 10 µg/mL (≈ 18.1 µM). Further, the values for the IC90 with Septoria tritici (St) (setting [11]) and with Rhizoctonia solani (Rs) (setting [12]) were more than 50 µg/mL and 0.08 µg/mL (≈ 0.145 µM), respectively.

As to `COc1ccc(F)cc1[C@@H](O)Cn1c(=O)n(C(C)(C)C(=O)N2CCCC2)c(=O)c2c(C)c(-n3nccn3)sc21` [Compound I-214], the IC90 in test [1] (setting [5]) was 0.4 µg/mL (≈ 0.719 µM); in test [2] (setting [6]), 2 µg/mL (≈ 3.59 µM); in the test with Botrtyis cinerea (Bc) (setting [7]), 2 µg/mL (≈ 3.59 µM); with Diplodia maydis (Dm) (setting [8]) it was not below 10 µg/mL; in test [3] (setting [9]) it was more than 50 µg/mL; in test [4] (setting [10]), 2 µg/mL (≈ 3.59 µM). Moreover, the IC90 is more than 50 µg/mL in the test with Septoria tritici (St) (setting [11]) and 0.08 µg/mL (≈ 0.144 µM) in the test on Rhizoctonia solani (Rs) (setting [12]).

Take `COc1ccccc1[C@@H](O)Cn1c(=O)n(C(C)(C)C(=O)N2CCCC2)c(=O)c2c(C)c(-n3nccn3)sc21` [Compound I-215]: the IC90 in test [1] (setting [13]) is 10 µg/mL (≈ 18.6 µM); in test [2] (setting [14]), 50 µg/mL (≈ 92.8 µM); in the test on Botrtyis cinerea (Bc) (setting [15]), 10 µg/mL (≈ 18.6 µM); with Diplodia maydis (Dm) (setting [16]), more than 50 µg/mL; in test [3] (setting [17]), more than 50 µg/mL; in test [4] (setting [18]), 10 µg/mL (≈ 18.6 µM). For the same compound, the IC90 in the test on Septoria tritici (St) (setting [19]) is more than 50 µg/mL; in the test on Rhizoctonia solani (Rs) (setting [20]), 0.08 µg/mL (≈ 0.149 µM).

Consider `COc1ccc(F)cc1[C@@H](O)Cn1c(=O)n([C@@H](C)C(=O)N2CCCC2)c(=O)c2c(C)c(-n3nccn3)sc21` [Compound I-218], for which the IC90 in test [1] (setting [5]) is 2 µg/mL (≈ 3.69 µM); in test [2] (setting [6]), 10 µg/mL (≈ 18.4 µM); in the test with Botrtyis cinerea (Bc) (setting [7]), 10 µg/mL (≈ 18.4 µM); in the test on Diplodia maydis (Dm) (setting [8]), 50 µg/mL (≈ 92.2 µM); in test [3] (setting [9]) it was not below 50 µg/mL; in test [4] (setting [10]), 2 µg/mL (≈ 3.69 µM). The values for the IC90 in the test on Septoria tritici (St) (setting [11]) and in the test with Rhizoctonia solani (Rs) (setting [12]) were more than 50 µg/mL and 2 µg/mL (≈ 3.69 µM), respectively.

For the compound `CCOC(=O)c1sc2c(c1C)c(=O)n([C@@H](C)C(=O)NC(C)C)c(=O)n2C[C@H](OCCC#N)c1cc(F)ccc1OC` [Compound I-219], the IC90 was 0.4 µg/mL (≈ 0.68 µM) in test [1] (setting [5]); 10 µg/mL (≈ 17 µM) in test [2] (setting [6]); 2 µg/mL (≈ 3.4 µM) with Botrtyis cinerea (Bc) (setting [7]); more than 10 µg/mL in the test on Diplodia maydis (Dm) (setting [8]); more than 50 µg/mL in test [3] (setting [9]); not below 10 µg/mL in test [4] (setting [10]). In addition, the IC90 in the test on Septoria tritici (St) (setting [11]) and in the test on Rhizoctonia solani (Rs) (setting [12]) was more than 50 µg/mL in each case.

For the compound `COc1ccc(F)cc1[C@@H](O)Cn1c(=O)n(C(C)(C)C(N)=O)c(=O)c2c(C)c(-n3nccn3)sc21` [Compound I-221], the IC90 in test [1] (setting [13]) was 10 µg/mL (≈ 19.9 µM); in test [2] (setting [14]) it was 50 µg/mL (≈ 99.5 µM); with Botrtyis cinerea (Bc) (setting [15]), 10 µg/mL (≈ 19.9 µM); in the test with Diplodia maydis (Dm) (setting [16]), more than 50 µg/mL; in test [3] (setting [17]) it was more than 50 µg/mL; in test [4] (setting [18]), 50 µg/mL (≈ 99.5 µM). For the same compound, the IC90 in the test on Septoria tritici (St) (setting [19]) and with Rhizoctonia solani (Rs) (setting [20]) was more than 50 µg/mL in each case.

In the case of `COc1ccc(F)cc1[C@@H](O)Cn1c(=O)n([C@H](C)C(=O)N2CCCC2)c(=O)c2c(C)c(-n3nccn3)sc21` [Compound I-222], the IC90 in test [1] (setting [5]) is 0.4 µg/mL (≈ 0.737 µM); in test [2] (setting [6]), 2 µg/mL (≈ 3.69 µM); with Botrtyis cinerea (Bc) (setting [7]), 2 µg/mL (≈ 3.69 µM); with Diplodia maydis (Dm) (setting [8]), 10 µg/mL (≈ 18.4 µM); in test [3] (setting [9]) it was more than 50 µg/mL; in test [4] (setting [10]), 0.4 µg/mL (≈ 0.737 µM). Further, the values for the IC90 in the test with Septoria tritici (St) (setting [11]) and in the test on Rhizoctonia solani (Rs) (setting [12]) were 50 µg/mL (≈ 92.2 µM) and 0.4 µg/mL (≈ 0.737 µM), respectively.

`CCOC(=O)c1sc2c(c1C)c(=O)n(C(C)(C)C(=O)N1CCCC1)c(=O)n2C[C@H](O)c1cc(F)ccc1OC` [Compound I-224]: the IC90 in test [1] (setting [5]) is 2 µg/mL (≈ 3.56 µM); in test [2] (setting [6]), 10 µg/mL (≈ 17.8 µM); with Botrtyis cinerea (Bc) (setting [7]), 2 µg/mL (≈ 3.56 µM); with Diplodia maydis (Dm) (setting [8]), more than 50 µg/mL; in test [3] (setting [9]), more than 50 µg/mL; in test [4] (setting [10]), 2 µg/mL (≈ 3.56 µM). In addition, the figures for the IC90 with Septoria tritici (St) (setting [11]) and with Rhizoctonia solani (Rs) (setting [12]) were more than 50 µg/mL and 0.08 µg/mL (≈ 0.142 µM), respectively.

For `CCOC(=O)c1sc2c(c1C)c(=O)n([C@@H](C)C(=O)N1CCCC1)c(=O)n2C[C@H](OCCC#N)c1cc(F)ccc1OC` [Compound I-225], the IC90 in test [1] (setting [5]) was 2 µg/mL (≈ 3.33 µM); in test [2] (setting [6]), more than 50 µg/mL; with Botrtyis cinerea (Bc) (setting [7]) it was 10 µg/mL (≈ 16.6 µM); with Diplodia maydis (Dm) (setting [8]), more than 10 µg/mL; in test [3] (setting [9]), more than 50 µg/mL; in test [4] (setting [10]), not below 50 µg/mL. The IC90 in the test on Septoria tritici (St) (setting [11]) is more than 50 µg/mL; in the test with Rhizoctonia solani (Rs) (setting [12]), 10 µg/mL (≈ 16.6 µM).
